Values quoted from earlier work as cited in patent US11440912B2, “Process for the preparation of ribociclib and its salts” (FRESENIUS KABI ONCOLOGY LIMITED, priority 2017, dated 2022).

Settings: at 80% RH

- ribociclib succinate converts to hydrated form from the non-hydrated form: 0.52%
SMILES: CN(C)C(=O)c1cc2cnc(Nc3ccc(N4CCNCC4)cn3)nc2n1C1CCCC1.O=C(O)CCC(=O)O [ribociclib succinate]
